Experimental data: publication PMC4864567, “Characterization of the ATP-Dependent Lon-Like Protease in Methanobrevibacter smithii” (Archaea, 2016)

Legend:
Lon-like-Ms [1] = target: T1, Lon-like-Ms (Methanobrevibacter smithii, UniProt A5UP31); experiment: fluorogenic peptide cleavage (MNA release); type: biochemical; conditions: ADP in place of ATP, with Mg2+; Glt-AAF-MNA, pH 8.0, 37 °C; called inhibitory, partial activity retained
T1 construct: gene Msm_1754
T1 sequence (A5UP31 1-682): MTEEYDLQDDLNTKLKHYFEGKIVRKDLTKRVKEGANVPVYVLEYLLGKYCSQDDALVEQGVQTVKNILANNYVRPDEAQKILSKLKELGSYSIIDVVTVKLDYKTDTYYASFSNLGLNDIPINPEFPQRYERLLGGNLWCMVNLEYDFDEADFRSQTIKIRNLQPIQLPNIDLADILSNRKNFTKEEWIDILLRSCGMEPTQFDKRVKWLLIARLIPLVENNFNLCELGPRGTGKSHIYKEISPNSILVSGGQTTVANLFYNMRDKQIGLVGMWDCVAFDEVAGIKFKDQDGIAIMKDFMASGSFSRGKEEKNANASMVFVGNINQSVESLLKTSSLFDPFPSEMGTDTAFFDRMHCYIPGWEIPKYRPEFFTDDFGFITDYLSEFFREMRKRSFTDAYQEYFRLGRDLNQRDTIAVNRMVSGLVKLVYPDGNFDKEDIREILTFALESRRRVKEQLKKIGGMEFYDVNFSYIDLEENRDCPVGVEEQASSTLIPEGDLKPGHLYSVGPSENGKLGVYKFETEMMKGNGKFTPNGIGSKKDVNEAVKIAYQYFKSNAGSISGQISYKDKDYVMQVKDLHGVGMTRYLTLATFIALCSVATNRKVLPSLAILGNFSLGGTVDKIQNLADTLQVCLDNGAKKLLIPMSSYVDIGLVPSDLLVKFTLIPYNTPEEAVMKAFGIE

Lon-like-Ms [2] = target: T1, Lon-like-Ms; experiment: fluorogenic peptide cleavage (MNA release); type: biochemical; conditions: 0.3 mM Glt-AAF-MNA, 10 mM MgCl2, pH 8.0, 37 °C; nucleotide required for activity, inhibitory at rising concentration; not a fitted IC50
From the text: fluorogenic peptide cleavage (MNA release) on Lon-like-Ms | reaching a decrease by half at 1-mM ATP or AMP-PNP

SMILES	fluorogenic peptide cleavage (MNA release) (Lon-like-Ms [1])	concentration giving decrease by half (Lon-like-Ms [2])
Nc1ncnc2c1ncn2[C@@H]1O[C@H](COP(=O)(O)OP(=O)(O)O)[C@@H](O)[C@H]1O [ADP]	ADP, a potent inhibitor of Lon from E. coli, also inhibited the activity of Lon-like-Ms	–
Nc1ncnc2c1ncn2[C@@H]1O[C@H](COP(=O)(O)OP(=O)(O)OP(=O)(O)O)[C@@H](O)[C@H]1O [ATP]	–	~ 1 mM
Nc1ncnc2c1ncn2[C@@H]1O[C@H](COP(=O)(O)OP(=O)(O)NP(=O)(O)O)[C@@H](O)[C@H]1O [5′-adenylyl imidodiphosphate]	–	~ 1 mM
